Reference: US20120245344A1 (NIPPON CHEMIPHAR CO., LTD., priority 2009, published 2012)

These molecules were tested against T1, human GPR119 (Homo sapiens, UniProt Q8TDV5) (assay: Measurement of intracellular cAMP in stable cell line expressing human GPR119 (GPR119 agonist effect)). Conditions: increase of intracellular cAMP, Flp-in T-Rex-293 cells expressing human GPR119, 37° C. for 30 minutes.
T1 construct: expressed in transfected cells; host or cells: Flp-in T-Rex-293 cells (Invitrogen #R78007), plasmid pcDNA5/FRT/TO, expression induced with tetracycline
T1 sequence (Q8TDV5 1-335): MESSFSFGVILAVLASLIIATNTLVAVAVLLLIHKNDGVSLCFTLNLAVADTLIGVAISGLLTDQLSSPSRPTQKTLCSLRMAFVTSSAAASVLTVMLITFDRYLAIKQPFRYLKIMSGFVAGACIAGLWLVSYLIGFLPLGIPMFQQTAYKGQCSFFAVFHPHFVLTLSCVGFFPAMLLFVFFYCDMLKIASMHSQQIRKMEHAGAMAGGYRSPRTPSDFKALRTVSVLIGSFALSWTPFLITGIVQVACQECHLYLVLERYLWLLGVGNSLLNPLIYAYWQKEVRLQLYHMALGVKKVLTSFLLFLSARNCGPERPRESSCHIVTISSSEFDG
Format: cell-based
Text: The GPR119 agonist effect is studied by measuring the effect of an analyte on increase of intracellular amount of cAMP in human GPR119 introduced cells. The testing method is described below.
Human GPR119 gene (NM 178471) is purchased from ATCC (ATCC No. 10807349), and is amplyfied according to PCR to form BamHI site at 5′ side and Apa I site at 3′ side. The primers are […] (sequence No. 1) and […] (sequence No. 2). The PCR conditions are described below.
The double-stranded DNA is thermally denatured using a DNA polymerase (KOD-Plus-Ver. 2; TOYOBO #KOD-211) at 98° C. for 10 seconds in one cycle. The denatured single-stranded DNA is annealed with the primers at 55° C. for 30 seconds. The DNA is subjected to an extension reaction at 68° C. for 1 minute and 15 seconds. The above-mentioned steps are repeated in 35 cycles. The PCR product is inserted into pcDNA5/FRT/TO (Invitrogen #V6520-20) plasmid. Flp-in T-Rex-293 cells (Invitorogen #R78007) are transfected with the obtained plasmid. The method of transfection is conducted in accordance with the protocol of the product.
(§1) The stable cell line expressing human GPR119 prepared in the above-mentioned method is plated on a 96-well plate at the concentration of 2,500 cells/well using Dulbecco's Modified Eagle Medium (DMEM) containing 10% fetal bovine serum (FBS). Twenty-four hours after plating, tetracyclin (Invitrogen #Q10019) is added at the final concentration of 20 ng/mL to induce hGPR119 gene expression. Twenty-four hours after, the medium is removed, and the cells are stimulated with an assay buffer (0.5 mM IBMX PBS (−)) containing the test compound at 37° C. for 30 minutes. The amount of the intracellular cAMP is measured using a commercially available kit (HitHunter™ cAMP XS+Assay: GE Healthcare #90007503) and a reader (FLUOstar Optima: BMG LABTECH). The test compound is dissolved in 100% DMSO, and added at the final concentration of 1%.
Human GPR119 gene (NM 178471) was purchased from ATCC (ATCC No. 10807349), and is amplyfied according to PCR to form BamHI site at 5′ side and Apa I site at 3′ side. The primers were […] (sequence No. 1) and […] (sequence No. 2). The PCR conditions are described below. The double-stranded DNA was thermally denatured using a DNA polymerase (KOD-Plus-Ver. 2; TOYOBO #KOD-211) at 98° C. for 10 seconds in one cycle. The denatured single-stranded DNA was annealed with the primers at 55° C. for 30 seconds. The DNA was subjected to an extension reaction at 68° C. for 1 minute and 15 seconds. The above-mentioned steps were repeated in 35 cycles. The PCR product was inserted into pcDNA5/FRT/TO (Invitrogen #V6520-20) plasmid. Flp-in T-Rex-293 cells (Invitorogen #R78007) were transfected with the obtained plasmid. The method of transfection was conducted in accordance with the protocol of the product.
as §1, with “method was” for “method is”, “#Q10019) was” for “#Q10019) is”, “medium was” for “medium is”, “cells were” for “cells are”, “cAMP was” for “cAMP is”, “compound was” for “compound is”
The examination was performed by the method similar to Example 87 Pharmacological experiment 1-(1), -(2).
Molecule CC(C)(C)OC(=O)N1CCC(c2ccc(Cn3ncc4cc(S(C)(=O)=O)ccc43)nc2)CC1 [Example 21, tert-Butyl 4-[2-(5-methanesulfonylindazol-1-ylmethyl)pyridin-5-yl]piperidine-1-carboxylate] has an EC50 of 428 nM. CC(C)(C)OC(=O)N1CCC(c2ccc(-c3cc4cc(S(C)(=O)=O)ccc4o3)nc2)CC1 [Example 9, tert-Butyl 4-[2-(5-methanesulfonylbenzofuran-2-yl)pyridin-5-yl]piperidine-1-carboxylate] was tested, and the EC50 was 420 nM. With CCc1cnc(N2CCC(c3ccc(Cn4ccc5cc(S(C)(=O)=O)cc(F)c54)nc3)CC2)nc1 [Example 34, 5-Ethyl-2-[4-[2-(7-fluoro-5-methanesulfonylindol-1-ylmethyl)pyridin-5-yl]piperidin-1-yl]pyrimidine] the EC50 was 30.4 nM. CC(C)(C)OC(=O)N1CCC(c2ccc(Cn3ccc4cc(S(C)(=O)=O)ncc43)nc2)CC1 [Example 29, tert-Butyl 4-[2-(5-methanesulfonyl-1H-pyrrolo[2,3-c]pyridin-1-ylmethyl)pyridin-5-yl]piperidine-1-carboxylate] showed an EC50 of 39 nM. Cc1cc(C2CCN(C(=O)OC(C)(C)C)CC2)cnc1Cn1ccc2cc(S(C)(=O)=O)ccc21 [Example 5, tert-Butyl 4-[2-(5-methanesulfonylindol-1-ylmethyl)-3-methylpyridin-5-yl]piperidine-1-carboxylate] gave an EC50 of 31.6 nM. Molecule CC(C)(C)OC(=O)N1CCC(c2ccc(Cn3ccc4cc(S(C)(=O)=O)c(Cl)cc43)nc2)CC1 [Example 31, tert-Butyl 4-[2-(6-chloro-5-methanesulfonylindol-1-ylmethyl)pyridin-5-yl]piperidine-1-carboxylate] has an EC50 of 41.1 nM. With CC(C)(C)OC(=O)N1CCC(c2ccc(Cn3ccc4cc(-n5cncn5)ccc43)nc2)CC1 [Example 56, tert-Butyl 4-[2-[5-(1,2,4-triazol-1-yl)indol-1-ylmethyl]pyridin-5-yl]piperidine-1-carboxylate] the EC50 was 26.2 nM. CC1CN(C(=O)OC(C)(C)C)CCC1c1ccc(Cn2ccc3cc(S(C)(=O)=O)ccc32)nc1 (stereo not drawn) [Example 44, tert-Butyl 4-[2-(5-methanesulfonylindol-1-ylmethyl)pyridin-5-yl]-3-methylpiperidine-1-carboxylate] showed an EC50 of 13.5 nM. Cc1cc(C2CCN(C(=O)OC(C)C)CC2)cnc1Cn1ccc2cc(-n3cncn3)ccc21 [Example 59, Isopropyl 4-[3-methyl-2-[5-(1,2,4-triazol-1-yl)indol-1-ylmethyl]pyridin-5-yl]piperidine-1-carboxylate] gave an EC50 of 104 nM. CC(C)(C)OC(=O)N1CCC(c2ccc(Cn3ccc4cc(S(C)(=O)=O)cnc43)nc2)CC1 [Example 17, tert-Butyl 4-[2-(5-methanesulfonyl-1H-pyrrolo[2,3-b]pyridin-1-ylmethyl)pyridin-5-yl]piperidine-1-carboxylate] showed an EC50 of 30.4 nM. With CC(C)(C)OC(=O)N1CCC(c2cnc(Cn3ccc4cc(S(C)(=O)=O)ccc43)c(F)c2)CC1 [Example 13, tert-Butyl 4-[3-fluoro-2-(5-methanesulfonylindol-1-ylmethyl)pyridin-5-yl]piperidine-1-carboxylate] the EC50 was 36.3 nM. CC(C)(C)OC(=O)N1CCC(c2ccc(CN3CCc4cc(S(C)(=O)=O)cc(F)c43)nc2)CC1 [Example 25, tert-Butyl 4-[2-(7-fluoro-5-methanesulfonylindolin-1-ylmethyl)pyridin-5-yl]piperidine-1-carboxylate] gave an EC50 of 20.2 nM. Work on CC(C)(C)OC(=O)N1CCC(c2ccc(Cn3ccc4cc(S(C)(=O)=O)cc(C(F)(F)F)c43)nc2)CC1 [Example 49, tert-Butyl 4-[2-(5-methanesulfonyl-7-trifluoromethylindol-1-ylmethyl)pyridin-5-yl]piperidine-1-carboxylate] yielded an EC50 of 297 nM. Molecule CC(C)(C)OC(=O)N1CCC(c2ccc(CN3CCc4cc(-n5cnnn5)cc(F)c43)nc2)CC1 [Example 38, tert-Butyl 4-[2-[7-fluoro-5-(tetrazol-1-yl)indolin-1-ylmethyl]pyridin-5-yl]piperidine-1-carboxylate] has an EC50 of 5.4 nM. Molecule CC(C)(C)OC(=O)N1CCC(c2ccc(Cn3ccc4cc(S(C)(=O)=O)cc(F)c43)nc2)CC1 [Example 11, tert-Butyl 4-[2-(7-fluoro-5-methanesulfonylindol-1-ylmethyl)pyridin-5-yl]piperidine-1-carboxylate] has an EC50 of 21.4 nM. CC(C)(C)OC(=O)N1CCC(c2ccc(Cn3ccc4c(F)c(S(C)(=O)=O)ccc43)nc2)CC1 [Example 23, tert-Butyl 4-[2-(4-fluoro-5-methanesulfonylindol-1-ylmethyl)pyridin-5-yl]piperidine-1-carboxylate] was tested, and the EC50 was 51.3 nM. For CCc1cnc(N2CCC(c3ccc(Cn4ccc5cc(-n6cnnn6)ccc54)nc3)CC2)nc1 [Example 33, 5-Ethyl-2-[4-[2-[5-(tetrazol-1-yl)indol-1-ylmethyl]pyridin-5-yl]piperidin-1-yl]pyrimidine], the EC50 was 15.5 nM. CC(C)(C)OC(=O)N1CCC(c2ccc(Cn3ccc4cc(S(C)(=O)=O)cc(N)c43)nc2)CC1 [Example 19, tert-Butyl 4-[2-(7-amino-5-methanesulfonylindol-1-ylmethyl)pyridin-5-yl]piperidine-1-carboxylate] gave an EC50 of 181 nM. CC1CN(C(=O)OC(C)(C)C)CC=C1c1ccc(Cn2ccc3c(F)c(S(C)(=O)=O)c(F)cc32)nc1 (stereo not drawn) [Example 62, tert-Butyl 4-[2-(4,6-difluoro-5-methanesulfonylindol-1-ylmethyl)pyridin-5-yl]-3-methyl-3,6-dihydro-2H-pyridine-1-carboxylate] was tested, and the EC50 was 65.2 nM. CC(C)(C)OC(=O)N1CCC(c2ccc(Cn3ccc4cc(S(C)(=O)=O)cc([N+](=O)[O-])c43)nc2)CC1 [Example 18, tert-Butyl 4-[2-(5-methanesulfonyl-7-nitroindol-1-ylmethyl)pyridin-5-yl]piperidine-1-carboxylate] showed an EC50 of 25.6 nM. In the case of CC(C)(C)OC(=O)N1CCC(c2ccc(Cn3ccc4cc(S(C)(=O)=O)c(F)c(F)c43)nc2)CC1 [Example 55, tert-Butyl 4-[2-(6,7-difluoro-5-methanesulfonylindol-1-ylmethyl)pyridin-5-yl]piperidine-1-carboxylate], the EC50 is reported as 10.7 nM. For CC(C)(C)OC(=O)N1CCC(F)(c2ccc(Cn3ccc4cc(S(C)(=O)=O)ccc43)nc2)CC1 [Example 76, tert-Butyl 4-fluoro-4-[2-(5-methanesulfonylindol-1-ylmethyl)pyridin-5-yl]piperidine-1-carboxylate], the EC50 was 42.6 nM. CC(C)c1nc(N2CCC(c3ccc(Cn4ccc5cc(S(C)(=O)=O)ccc54)nc3)CC2)no1 [Example 16, 5-Isopropyl-3-[4-[2-(5-methanesulfonylindol-1-ylmethyl)pyridin-5-yl]piperidin-1-yl]-[1,2,4]oxadiazole] showed an EC50 of 49.1 nM.

Same assay, conditions: statement in words on Tables 10 to 13
For CC(C)(C)OC(=O)N1CCC(c2ccc(CN3CCc4cc(-n5cnnn5)cc(F)c43)nc2)CC1 [Example 38, tert-Butyl 4-[2-[7-fluoro-5-(tetrazol-1-yl)indolin-1-ylmethyl]pyridin-5-yl]piperidine-1-carboxylate], the “GPR119 agonist effect (in words)” value was “excellent GPR119 agonist effect”.
